This assay concerns the target T1, TNKS2 (tankyrase 2) (Homo sapiens, UniProt Q9H2K2).
T1 construct: recombinant His-tagged human TNKS2 poly(adenosine diphosphate)-ribose polymerase (PARP) domain, baculovirus-expressed
T1 sequence (Q9H2K2 946-1162 limits assumed): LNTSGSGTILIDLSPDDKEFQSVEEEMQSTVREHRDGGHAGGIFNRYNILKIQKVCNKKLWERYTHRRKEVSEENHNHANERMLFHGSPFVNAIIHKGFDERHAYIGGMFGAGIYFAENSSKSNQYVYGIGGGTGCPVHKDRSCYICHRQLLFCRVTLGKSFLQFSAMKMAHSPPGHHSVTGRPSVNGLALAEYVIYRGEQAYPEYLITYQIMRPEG
Nature of the assay: auto-PARsylation assay with purified PARP domain on Ni2+-coated Flashplate, radioactive scintillation readout. It counts as biochemical.

For the compound `CCc1cc2ccc(C(C)(C#N)Cc3cccc(C#N)c3)cc2[nH]c1=O` (single isomer, unassigned) [JNJ-BJ, (R or S)-3-[2-cyano-2-(3-ethyl-2-oxo-1H-quinolin-7-yl)propyl]benzonitrile], the half-maximal inhibitory concentration (IC50) stood at 0.13 µM.

Broadly, the IC50 is the midpoint of a concentration-inhibition curve.

Source of the values: paper PMC4719581, “Tankyrase inhibition impairs directional migration and invasion of lung cancer cells by affecting microtubule dynamics and polarity signals” (BMC Biology, 2016).
